The values below come from ChEMBL document CHEMBL1201862, “PubChem BioAssay data set” (2004).

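Growth conditions: 96-well plates. Treatment: test compound, 48 hours, 5 concentrations. Analysis: linear interpolation between bracketing concentrations; unreached endpoints set to highest concentration. Abbreviation: GI50, concentration required for 50% inhibition of growth.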 Active and inactive are the calls of the source. Cut-off read from the data, not from the text of the source: active = GI50 up to about 1.1 µM and inactive = higher.

Common to all, as to assay: NCI-60 cell line screen, 48 h
Test [1] deals with 786-0.
Test [2] has as its system ACHN.
In test [3] the test system is BT-549.
Test [4] concerns CCRF-CEM.
Test [5] relates to HCC 2998.
For test [6], the system named is KM12.
The test system of test [7] is M14.
Test [8] relates to MDA-N.
Test [9] deals with NCI-H23.
Test [10] relates to NCI/ADR-RES.
Test [11] has as its system OVCAR-5.
Test [12] concerns SF-295.
The subject of test [13] is SK-MEL-2.
Test [14] has as its system SK-MEL-5.
Test [15] concerns SN12C.
Test [16] concerns SNB-19.
The subject of test [17] is SNB-75.
Test [18] deals with TK-10.
Test [19] concerns U-251.
Test [20] concerns UACC-62.

For `C/C(=N\Nc1ncnc2ccccc12)c1ccccn1`, the GI50 in test [1] is < 0.0236 µM (active); in [2], 0.0169 µM (active); in test [3], 0.587 µM (active); in test [4] it was < 0.01 µM (active); in test [5], 0.105 µM (active); in test [6], 0.0561 µM (active). In addition, the GI50 in [7] is 0.02 µM (active); in test [8], 0.384 µM (active); in [9] it was < 0.0244 µM (active); in test [10], < 0.0168 µM (active); in test [11], 1.61 µM (inactive); in test [12], 0.0803 µM (active). In addition, the GI50 is 2.79 µM (inactive) in [13]; 0.0237 µM (active) in test [14]; 0.026 µM (active) in [15]; 0.802 µM (active) in test [16]; 1.81 µM (inactive) in test [17]; 0.157 µM (active) in test [18]. In addition, the GI50 in test [19] was < 0.0214 µM (active); in test [20] it was 0.0948 µM (active).

Regarding `CN(C)CCNC(=O)c1cc([N+](=O)[O-])cc2c1Oc1ccccc1O2`, the GI50 was 15.6 µM (inactive) in test [1]; 6.46 µM (inactive) in [2]; 35.5 µM (inactive) in [3]; 17.8 µM (inactive) in test [4]; 3.79 µM (inactive) in test [5]; 31 µM (inactive) in test [6]. Moreover, the GI50 in [7] was 31.5 µM (inactive); in [8] it was 58.2 µM (inactive); in [9], 51.8 µM (inactive); in test [10], 23.9 µM (inactive); in test [11] it was 40.9 µM (inactive); in [12], 22 µM (inactive). For the same molecule, the GI50 in test [13] was 18.2 µM (inactive); in [14] it was 23 µM (inactive); in test [15], 25.7 µM (inactive); in test [17] it was 13 µM (inactive); in test [18] it was 23.7 µM (inactive); in test [19] it was 29.4 µM (inactive). The GI50 in test [20] is 11.9 µM (inactive).

As for `CC(C)c1cc2c(c(O)c1O)[C@@]1(C(=O)O)CCCC(C)(C)[C@@H]1CC2` [CARNOSIC ACID], the GI50 in test [1] was 31 µM (inactive); in test [2], 13.4 µM (inactive); in test [3] it was 10.5 µM (inactive); in test [4] it was 3.18 µM (inactive); in test [5], 13.2 µM (inactive); in test [6] it was 14 µM (inactive). In addition, the GI50 in test [8] is 32.4 µM (inactive); in [9], 20 µM (inactive); in test [10], 15.6 µM (inactive); in test [11] it was 20.8 µM (inactive); in [12], 22.4 µM (inactive); in test [13], 18.9 µM (inactive). Moreover, the GI50 in [14] was 16.2 µM (inactive); in [15], 24 µM (inactive); in test [16] it was > 10 µM (inactive); in test [17], 17.8 µM (inactive); in [18], 13.4 µM (inactive); in [19] it was 13.8 µM (inactive). In addition, the GI50 in test [20] was 13.9 µM (inactive).

Take `CC#CC#C/C=C1/O[C@]2(CCC(OC(=O)CC(C)C)CO2)[C@@H]2O[C@H]12` (stereo partly drawn): the GI50 in test [1] is 20.9 µM (inactive); in [2], 21 µM (inactive); in [3], 24.1 µM (inactive); in test [4], 7.69 µM (inactive); in [5], 19.5 µM (inactive); in test [6], 27 µM (inactive). The GI50 was 21.9 µM (inactive) in test [7]; 22.5 µM (inactive) in test [8]; 24.5 µM (inactive) in test [9]; 28.4 µM (inactive) in [10]; 28.2 µM (inactive) in test [11]; 21.6 µM (inactive) in test [13]. The GI50 in test [15] is 22.2 µM (inactive); in test [16] it was 61.7 µM (inactive); in test [17] it was 78.5 µM (inactive); in test [18], 25.7 µM (inactive); in test [19], 21.7 µM (inactive); in [20], 23.3 µM (inactive).

Consider `CC1=C(C(=O)N[C@@H](Cc2ccccc2)C(=O)O)N2C(=O)[C@@H](NC(=O)[C@@H](N)CC(C)C)[C@H]2SC1`, for which the GI50 in test [1], in test [2], in test [3], in [4], in test [5] and in test [6] was > 100 µM (inactive) throughout. For the same molecule, the GI50 in [7], in test [8], in [10], in test [11], in test [12] and in test [13] was > 100 µM (inactive) each time. Further, the GI50 in test [14], in test [15], in [16], in [17], in test [18] and in test [19] was > 100 µM (inactive) in each case. Further, in test [20], the GI50 is > 100 µM (inactive).

As for `O=C1CSC2(CC(/C=C/c3ccccc3Br)=NN2c2cccc(S(=O)(=O)O)c2)N1c1nc2ccccc2s1` (stereo not drawn), the GI50 in test [1] is > 100 µM (inactive); in test [2], > 100 µM (inactive); in test [3], > 100 µM (inactive); in test [4] it was 30.5 µM (inactive); in [5] it was > 100 µM (inactive); in test [6], 98.4 µM (inactive). In addition, the GI50 in test [7], in test [8], in test [9], in [10], in test [11] and in test [13] was > 100 µM (inactive) each time. Further, the GI50 in test [14] was 76 µM (inactive); in test [15], > 100 µM (inactive); in test [16] it was > 100 µM (inactive); in test [17], > 100 µM (inactive); in [18], 45.7 µM (inactive); in [19] it was 75.5 µM (inactive). Further, the GI50 in [20] is 51.5 µM (inactive).

For `COC(=O)CN(CC(=O)NCCCBr)C1CCCCC1N(CC(=O)OC)CC(=O)OC` (stereo not drawn), the GI50 in test [1], in test [2], in test [3], in test [4], in test [5] and in test [6] was > 100 µM (inactive) each time. The GI50 in test [8], in test [9], in test [10], in [11], in [12] and in [13] was > 100 µM (inactive) each time. Besides, the GI50 was > 100 µM (inactive) in [14]; > 100 µM (inactive) in test [15]; > 100 µM (inactive) in test [16]; 19.1 µM (inactive) in [17]; > 100 µM (inactive) in [18]; > 100 µM (inactive) in test [19]. Moreover, the GI50 in test [20] is > 100 µM (inactive).

Consider `Cc1ccc([N+](=O)[O-])cc1S(=O)(=O)Nc1ccc(C2=NOC(c3ccco3)C2)cc1` (stereo not drawn), for which the GI50 in [1] is 18.2 µM (inactive); in [2], 21.3 µM (inactive); in test [3], 18 µM (inactive); in test [4], 18 µM (inactive); in test [5], 17.2 µM (inactive); in test [6] it was 11.8 µM (inactive). For the same molecule, the GI50 in test [7] was 15.3 µM (inactive); in test [8], 6.44 µM (inactive); in test [9], 16.5 µM (inactive); in [10], 14.5 µM (inactive); in test [11], 22.9 µM (inactive); in test [12], 14.1 µM (inactive). Also, the GI50 in test [13] was 16 µM (inactive); in test [14] it was 13.2 µM (inactive); in [15], 21.9 µM (inactive); in [16], 18.7 µM (inactive); in test [17], 18.7 µM (inactive); in test [18] it was 31.2 µM (inactive). Further, in test [20], the GI50 is 11.7 µM (inactive).

In the case of `CC(=O)CCC[C@H](C)[C@@H](O)[C@@H]1O[C@H]([C@@]2(C)CCC(=O)O2)C[C@H]1C(=O)O`, the GI50 in test [1] was > 100 µM (inactive); in test [2], > 100 µM (inactive); in test [3] it was 35.6 µM (inactive); in test [4], > 100 µM (inactive); in [5] it was > 100 µM (inactive); in [6], > 100 µM (inactive). Further, the GI50 in test [8], in test [9], in test [10], in [11], in test [12] and in test [13] was > 100 µM (inactive) throughout. Moreover, the GI50 in test [14], in [15], in test [16], in test [17], in [18] and in test [19] was > 100 µM (inactive) in each case. In test [20], the GI50 was > 100 µM (inactive).

On to `CCOC(=O)CCCOc1cc(-c2ccccc2F)nc2cc3c(cc12)OCO3`, for which the GI50 in test [1] was > 100 µM (inactive); in test [3] it was 19.9 µM (inactive); in test [4] it was 30.8 µM (inactive); in test [5], 5.82 µM (inactive); in test [6] it was 61.9 µM (inactive); in [7] it was 53 µM (inactive). Besides, the GI50 in test [8] is 88.7 µM (inactive); in test [9], 46.6 µM (inactive); in test [10], 46.8 µM (inactive); in test [11] it was > 100 µM (inactive); in [13] it was > 100 µM (inactive); in [14], 57.7 µM (inactive). In addition, the GI50 in test [15] is > 100 µM (inactive); in test [17] it was 40.9 µM (inactive); in test [18] it was > 100 µM (inactive); in test [19], 95.9 µM (inactive); in [20], 84.9 µM (inactive).
